We go through one compound from patent US20250339426A1, “GCN2 MODULATOR FOR TREATING CANCER” (HIBERCELL, INC., priority 2022, published 2025).

The test system of assay [1] is CTG-3440. As to the kind of experiment: Ex vivo AML PDX cell viability (Cell Titer Glo). It counts as cell-based. As to conditions: Homo sapiens, 144 h; PDX model CTG-3440, 6 days; read-out: HC-7366 EC50. As to the method:
(§1) . Cell viability was assayed after treating PDX models with DMSO or HC-7366 for 6 days using a plate-based luminescence assay (Cell Titer Glo). […]
(§2) EC50 values were calculated to the bottom of the curve and are provided below. Viability curves are provided for the models CTG-2229 (FIG. 81), CTG-3680 (FIG. 82), CTG-3667 (FIG. 83), CTG-2456 (FIG. 84), CTG-2457 (FIG. 85), and CTG-2454 (FIG. 86).
In general terms: Cellular ATP, detected with luciferase, serves as a proxy for viable cell number.

The test system of assay [2] is CTG-2234. As to the kind of experiment: Ex vivo AML PDX cell viability (Cell Titer Glo). It counts as cell-based. As to conditions: Homo sapiens, 144 h; PDX model CTG-2234, 6 days; read-out: HC-7366 EC50. As to the method:
as §1, §2

Assay [3] concerns CTG-3679. As to the kind of experiment: Ex vivo AML PDX cell viability (Cell Titer Glo). It counts as cell-based. As to conditions: Homo sapiens, 144 h; PDX model CTG-3679, 6 days; read-out: HC-7366 EC50. Here is the method:
as §1, §2

In assay [4] the test system is CTG-3439. Put plainly: Ex vivo AML PDX cell viability (Cell Titer Glo). The format is cell-based. The settings on record: Homo sapiens, 144 h; PDX model CTG-3439, 6 days; read-out: HC-7366 EC50. As to the method: as §1, §2
Assay [5] deals with CTG-2236. Put plainly: Ex vivo AML PDX cell viability (Cell Titer Glo). The format is cell-based. As to conditions: Homo sapiens, 144 h; PDX model CTG-2236, 6 days; read-out: HC-7366 EC50. Here is the method: as §1, §2
The subject of assay [6] is CTG-2233. Put plainly: Ex vivo AML PDX cell viability (Cell Titer Glo). It counts as cell-based. The settings on record: Homo sapiens, 144 h; PDX model CTG-2233, 6 days; read-out: HC-7366 EC50. As to the method: as §1, §2
In assay [7] the test system is CTG-3673. Put plainly: Ex vivo AML PDX cell viability (Cell Titer Glo). The format is cell-based. As to conditions: Homo sapiens, 144 h; PDX model CTG-3673, 6 days; read-out: HC-7366 EC50. As to the method: as §1, §2
In assay [8] the test system is CTG-2227. As to the kind of experiment: Ex vivo AML PDX cell viability (Cell Titer Glo). It counts as cell-based. The settings on record: Homo sapiens, 144 h; PDX model CTG-2227, 6 days; read-out: HC-7366 EC50. As to the method:
as §1, §2

For assay [9], the system named is CTG-2775. As to the kind of experiment: Ex vivo AML PDX cell viability (Cell Titer Glo). It counts as cell-based. As to conditions: Homo sapiens, 144 h; PDX model CTG-2775, 6 days; read-out: HC-7366 EC50. As to the method: as §1, §2
Assay [10] relates to CTG-2229. As to the kind of experiment: Ex vivo AML PDX cell viability (Cell Titer Glo). The format is cell-based. The settings on record: Homo sapiens, 144 h; PDX model CTG-2229, 6 days; read-out: HC-7366 EC50. As to the method:
as §1, §2

Assay [11] has as its system CTG-2455. As to the kind of experiment: Ex vivo AML PDX cell viability (Cell Titer Glo). The format is cell-based. As to conditions: Homo sapiens, 144 h; PDX model CTG-2455, 6 days; read-out: HC-7366 EC50. Here is the method:
as §1, §2

Assay [12] has as its system CTG-3438. As to the kind of experiment: Ex vivo AML PDX cell viability (Cell Titer Glo). The format is cell-based. As to conditions: Homo sapiens, 144 h; PDX model CTG-3438, 6 days; read-out: HC-7366 EC50. As to the method:
as §1, §2

Assay [13] deals with CTG-3680. Put plainly: Ex vivo AML PDX cell viability (Cell Titer Glo). The format is cell-based. As to conditions: Homo sapiens, 144 h; PDX model CTG-3680, 6 days; read-out: HC-7366 EC50. Here is the method: as §1, §2
In assay [14] the test system is CTG-2774. Put plainly: Ex vivo AML PDX cell viability (Cell Titer Glo). It counts as cell-based. The settings on record: Homo sapiens, 144 h; PDX model CTG-2774, 6 days; read-out: HC-7366 EC50. Here is the method:
as §1, §2

Assay [15] deals with CTG-3441. Put plainly: Ex vivo AML PDX cell viability (Cell Titer Glo). The format is cell-based. As to conditions: Homo sapiens, 144 h; PDX model CTG-3441, 6 days; read-out: HC-7366 EC50. As to the method: as §1, §2
The subject of assay [16] is CTG-2457. Put plainly: Ex vivo AML PDX cell viability (Cell Titer Glo). The format is cell-based. As to conditions: Homo sapiens, 144 h; PDX model CTG-2457, 6 days; read-out: HC-7366 EC50. Here is the method:
as §1, §2

Assay [17] deals with CTG-2238. As to the kind of experiment: Ex vivo AML PDX cell viability (Cell Titer Glo). The format is cell-based. The settings on record: Homo sapiens, 144 h; PDX model CTG-2238, 6 days; read-out: HC-7366 EC50. Here is the method: as §1, §2
For assay [18], the system named is CTG-3674. Put plainly: Ex vivo AML PDX cell viability (Cell Titer Glo). As to conditions: Homo sapiens, 144 h; PDX model CTG-3674, 6 days; read-out: HC-7366 EC50. The format is cell-based. Here is the method: as §1, §2
In assay [19] the test system is CTG-2453. Put plainly: Ex vivo AML PDX cell viability (Cell Titer Glo). The format is cell-based. As to conditions: Homo sapiens, 144 h; PDX model CTG-2453, 6 days; read-out: HC-7366 EC50. Here is the method: as §1, §2
Assay [20] has as its system CTG-2235. Put plainly: Ex vivo AML PDX cell viability (Cell Titer Glo). The format is cell-based. The settings on record: Homo sapiens, 144 h; PDX model CTG-2235, 6 days; read-out: HC-7366 EC50. As to the method: as §1, §2
In assay [21] the test system is CTG-2232. As to the kind of experiment: Ex vivo AML PDX cell viability (Cell Titer Glo). The format is cell-based. As to conditions: Homo sapiens, 144 h; PDX model CTG-2232, 6 days; read-out: HC-7366 EC50. Here is the method: as §1, §2
The test system of assay [22] is GCN2 pathway (p-GCN2, ATF4) in HT1080 cells. Put plainly: Western blot analysis of HT1080 cell lysates. It counts as cell-based, human. As to conditions: FIG. 5. As to the method:
The HT1080 cells were harvested and counted and diluted to the desired density. 2 mL of cell suspension was added into each well of 6-well cell culture plate. The plates were transferred into 37° C., 5% CO2 incubator overnight. The cells were treated as described above. The media was aspirated, and cells were washed with ice cold phosphate buffered saline (PBS). Ice cold 1× radioimmunoprecipitation assay (RIPA) lysis buffer supplemented with protease and phosphatase inhibitors was added to the cell pellets, on ice. After 30 min on ice the cell lysates were centrifuged at 4° C., 12,000 rpm for 15 minutes and the supernatant collected. Protein concentration was determined using BCA kit. The cell lysates were mixed with 5× sodium dodecyl sulfate (SDS) loading buffer and denatured at 95° C. for 5 minutes. […] After the electrophoresis was completed, the separated protein was transferred to a nitrocellulose membrane using transblot system for 90 min, 300 mA, then the membrane was blocked with (tris-buffered saline) TBS buffer (5% bovine serum albumin (BSA)) for 1 hr at room temperature. The membrane was exposed to the primary antibodies overnight in cold room in TBS buffer (1% BSA). The membrane was then washed with TBS-Tween for 3×10 min at R/T, incubated with secondary antibodies in TBS buffer (1% BSA) for 1 hr at RT. The membrane was washed with TBS-Tween for 3×10 min at R/T and the imaging was acquired with Li—COR imaging system.

Molecules are shown by their SMILES.

Consider `CNC(=O)c1ncn2cc(-c3c(F)ccc(NS(=O)(=O)c4cc(Cl)cnc4OC)c3F)ncc12` [HC-7366, 6-(3-((5-chloro-2-methoxypyridine)-3-sulfonamido)-2,6-difluorophenyl)-N-methylimidazo[1,5-a]pyrazine-1-carboxamide], for which the concentration giving a half-maximal response (EC50) – broadly, the concentration giving half of the maximal effect – in assay [1] worked out at 55.2 µM; in assay [2], 65.5 µM; in assay [3], 107 µM; in assay [4], 349 µM; in [5], 36.5 µM; in assay [6] it was 102 µM. Moreover, the EC50 worked out at 65.6 µM in [7]; 39.9 µM in [8]; 43.4 µM in assay [9]; 34 µM in assay [10]; 35.7 µM in assay [11]; 196 µM in assay [12]. Moreover, the EC50 came out at 231 µM in assay [13]; 96.9 µM in assay [14]; 102 µM in [15]; 248 µM in [16]; 123 µM in [17]; 129 µM in [18]. The EC50 in assay [19] stood at 180 µM; in assay [20], 103 µM; in assay [21], 84.3 µM. For the same compound, in [22] (0 to 10 μM), the “GCN2 pathway, HC-7366 by itself” value is “activation of GCN2 pathway”. Moreover, the “halofuginone induced p-GCN2 and ATF4” value in assay [22] (100 nM Halofuginone) is on record as “inhibited”.
